Literature values, collected in patent US20120128730A1, “COMPOSITIONS AND METHODS FOR ONCE-DAILY TREATMENT OF OBSESSIVE COMPULSIVE DISORDER WITH ONDANSETRON” (priority 2010, published 2012).

Tested on: mesenteric bed or the nerves in the heart
Conditions: animal studies

## Cc1nccn1CC1CCc2c(c3ccccc3n2C)C1=O (stereo not shown) [ondansetron]
  effect on the mesenteric bed or the nerves in the heart: did not appear to have effect
